Earlier results as cited in patent US20220288358A1, “Drug-Coated Balloon Controllable In Drug Metabolism And Preparation Method Therefor” (Shanghai HeartCare Medical Technology Corporation Limited, priority 2019, published 2022).
Entries after “also recorded” stand apart in the source; their conditions may differ.

Target: FKBP12 protein (Homo sapiens, UniProt P62942)
Settings: rank order from strong to weak; stated without data

Chain of FKBP12 protein (P62942 whole entry, species assumed): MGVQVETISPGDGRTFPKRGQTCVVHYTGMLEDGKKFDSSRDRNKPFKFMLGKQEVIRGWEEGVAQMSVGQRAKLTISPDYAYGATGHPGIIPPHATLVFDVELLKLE

CCC(C)(C)C(=O)C(=O)N1CCC[C@H]1C(=O)OCCCc1cccnc1 [drug a, 3-pyridin-3-ylpropyl-(2 S)-1-(3,3-dimethyl-2-oxo-pentanoyl)-pyrrolidine-2-carboxylate]
ability to bind FKBP12 protein: from strong to weak is drug c, drug b, and drug a

Cc1ccc(S(=O)(=O)N2CCSC[C@H]2C(=O)N[C@@H](Cc2ccccc2)C(=O)OCc2ccccc2)cc1 [drug c, (3R)-4-(p-Toluenesulfonyl)-1,4-thiazane-3-carboxylic acid-L-phenylalanine benzyl ester]
ability to bind FKBP12 protein: stronger than that of drug a; also recorded: from strong to weak is drug c, drug b, and drug a

CCOC(=O)[C@H](CC(C)C)NC(=O)[C@@H]1CSCCN1S(=O)(=O)c1ccc(C)cc1 [drug b, (3R)-4-(p-Toluenesulfonyl)-1,4-thiazane-3-carboxylicacid-L-leucine ethyl ester]
ability to bind FKBP12 protein: from strong to weak is drug c, drug b, and drug a
